Consider 16 compounds from PubChem BioAssay (NCI).

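Cultured in 96-well plates, cells were exposed to test compound for 48 hours across five concentrations. Here, GI50 denotes the concentration required for 50% inhibition of growth. TGI is the concentration that stops growth completely.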

Test systems include A549 NSCLC; CCRF-CEM leukemia; COLO 205 colon; IGROV1 ovarian; NCI-H23 lung; SF-295 CNS; SF-539 CNS; SN12C renal; UACC-257 melanoma; MDA-MB-435.
What all share (assay): NCI tumour cell line growth inhibition, 48 h

As to `O=c1c2cccc3cccc(c4n1CCCN=4)c32`, the TGI in the assay on A549 NSCLC, with CCRF-CEM leukemia, with COLO 205 colon, in the assay on IGROV1 ovarian, in the assay on NCI-H23 lung and in the assay with SF-295 CNS was greater than 100 µM in each case. Moreover, the TGI in the assay with SF-539 CNS, in the assay on SN12C renal and in the assay with UACC-257 melanoma was greater than 100 µM throughout.

`CN1CC[C@]23c4c5ccc(O)c4OC2c2[nH]ncc2C[C@H]3[C@H]1C5` (some centres not stated): the TGI in the assay on A549 NSCLC, with CCRF-CEM leukemia, in the assay on COLO 205 colon, in the assay on IGROV1 ovarian, with MDA-MB-435 and in the assay on NCI-H23 lung was greater than 100 µM in each case. In addition, the TGI with SF-295 CNS, in the assay with SN12C renal and in the assay on UACC-257 melanoma was greater than 100 µM in each case.

Turning to `COc1ncc2cc1NS(=O)(=O)c1cccc(c1)C(=O)NCC1=CC=C(S1)c1ncnc3c1SC2=C3C`, the GI50 in the assay on A549 NSCLC was 0.158 µM; in the assay with CCRF-CEM leukemia, 0.153 µM; in the assay with COLO 205 colon, 0.204 µM; with IGROV1 ovarian it was 0.0715 µM; with MDA-MB-435, 0.434 µM; in the assay on SF-295 CNS, 0.0972 µM. Moreover, the results for the GI50 with SN12C renal and with UACC-257 melanoma were 0.395 µM and 0.371 µM, respectively. The TGI with A549 NSCLC stood at 0.805 µM; with CCRF-CEM leukemia, 1.16 µM; in the assay with COLO 205 colon, 0.555 µM; in the assay on IGROV1 ovarian, 1.6 µM; with MDA-MB-435 it was 3.43 µM; with SF-295 CNS, 2.61 µM. Besides, the TGI was 18.3 µM in the assay with SN12C renal and 2.99 µM in the assay on UACC-257 melanoma.

Regarding `c1ccc2c(c1)[O][Sn][O]2`, the GI50 was 11 µg/mL in the assay on A549 NSCLC; 1.12 µg/mL in the assay with CCRF-CEM leukemia; greater than 150 µg/mL in the assay with COLO 205 colon; 24.3 µg/mL in the assay with IGROV1 ovarian; 21.3 µg/mL in the assay on NCI-H23 lung; greater than 150 µg/mL with SF-295 CNS. For the same compound, the GI50 was 26.2 µg/mL with SF-539 CNS, 41.8 µg/mL in the assay with SN12C renal and greater than 150 µg/mL in the assay on UACC-257 melanoma. Moreover, the TGI is greater than 150 µg/mL in the assay with A549 NSCLC; greater than 150 µg/mL in the assay on CCRF-CEM leukemia; greater than 150 µg/mL in the assay on COLO 205 colon; greater than 150 µg/mL with IGROV1 ovarian; 113 µg/mL in the assay with NCI-H23 lung; greater than 150 µg/mL with SF-295 CNS. In addition, the TGI in the assay with SF-539 CNS, in the assay with SN12C renal and in the assay with UACC-257 melanoma was greater than 150 µg/mL in each case.

For the compound `CCOC(=O)COc1cccc2occc(=O)c12`, the TGI in the assay with A549 NSCLC, in the assay on CCRF-CEM leukemia, with COLO 205 colon, with IGROV1 ovarian, in the assay with NCI-H23 lung and in the assay with SF-295 CNS was greater than 100 µM each time. In addition, the TGI with SF-539 CNS, with SN12C renal and in the assay with UACC-257 melanoma was greater than 100 µM throughout.

Regarding `O=C1c2ccccc2-c2c1c1ccc([N+](=O)[O-])cc1c(=O)n2CCCCl`, the GI50 in the assay on A549 NSCLC is greater than 100 µM; in the assay with IGROV1 ovarian it was greater than 100 µM; with MDA-MB-435, 31.7 µM; with NCI-H23 lung, 3.52 µM; in the assay on SF-295 CNS, 2.25 µM; in the assay with SN12C renal, 27.1 µM. Besides, the GI50 with UACC-257 melanoma is greater than 100 µM. For the same compound, the TGI in the assay with A549 NSCLC is greater than 100 µM; with IGROV1 ovarian, greater than 100 µM; in the assay on MDA-MB-435, greater than 100 µM; in the assay with NCI-H23 lung, 54.1 µM; with SF-295 CNS, greater than 100 µM; with SN12C renal it was greater than 100 µM. The compound also came in with a TGI with UACC-257 melanoma greater than 100 µM.

For the compound `O=CC(O)C(O)C(OC1OC(CO)C(O)C(O)C1O)C(O)CO` (configuration not stated) (tested in a mixture with another compound), the TGI in the assay with A549 NSCLC is greater than 100 µM; in the assay on COLO 205 colon it was greater than 100 µM; with IGROV1 ovarian, 71.9 µM; in the assay with MDA-MB-435 it was greater than 100 µM; with NCI-H23 lung, greater than 100 µM; in the assay on SF-295 CNS, greater than 100 µM. Besides, the TGI in the assay on SF-539 CNS, in the assay on SN12C renal and in the assay on UACC-257 melanoma was greater than 100 µM throughout.

Regarding `O=C(Nc1nc2c(s1)CCc1c-2c(Br)n(Cc2ccccc2)c1Br)c1ccccc1`, the GI50 in the assay on A549 NSCLC is 3.12 µM; with COLO 205 colon it was 8.05 µM; in the assay on IGROV1 ovarian, 2.68 µM; in the assay with MDA-MB-435 it was 2.97 µM; in the assay on NCI-H23 lung, 8.03 µM; in the assay on SF-295 CNS, 3.01 µM. Also, the GI50 is 1.55 µM in the assay with SF-539 CNS, 10 µM in the assay on SN12C renal and 8.53 µM with UACC-257 melanoma. Moreover, the TGI is 23.1 µM in the assay with A549 NSCLC; greater than 100 µM with COLO 205 colon; 33.4 µM with IGROV1 ovarian; 35.9 µM with MDA-MB-435; greater than 100 µM with NCI-H23 lung; 13.2 µM in the assay with SF-295 CNS. Besides, the TGI is 3.38 µM in the assay with SF-539 CNS, greater than 100 µM in the assay on SN12C renal and greater than 100 µM in the assay on UACC-257 melanoma.

For `O=S(=O)(Cc1ccccc1)SCc1ccccc1`, the TGI in the assay with A549 NSCLC was greater than 100 µM; with CCRF-CEM leukemia, greater than 27.5 µM; in the assay with COLO 205 colon, 34.3 µM; in the assay with IGROV1 ovarian, greater than 84.7 µM; in the assay with NCI-H23 lung it was 52.7 µM; with SF-295 CNS, 65.7 µM. Also, the values for the TGI in the assay with SF-539 CNS, in the assay on SN12C renal and in the assay with UACC-257 melanoma were 37.8 µM, 58 µM and 76 µM, respectively.

As to `Nc1nc(-c2ccccc2)cc(-c2cc(Cl)ccc2O)n1`, the TGI in the assay with A549 NSCLC, in the assay on CCRF-CEM leukemia, in the assay on COLO 205 colon, with IGROV1 ovarian, in the assay with NCI-H23 lung and with SF-295 CNS was greater than 100 µM in each case. For the same compound, the TGI in the assay with SF-539 CNS, with SN12C renal and with UACC-257 melanoma was greater than 100 µM in each case.

Take `COC(=O)c1ccc2c(c1)C(=O)c1c-2n(CCCCl)c(=O)c2cc(OC)c(OC)cc12`: the GI50 in the assay on A549 NSCLC, in the assay on CCRF-CEM leukemia, in the assay on COLO 205 colon, in the assay with IGROV1 ovarian, with MDA-MB-435 and in the assay on NCI-H23 lung was greater than 100 µM throughout. The GI50 with SF-295 CNS, with SN12C renal and in the assay with UACC-257 melanoma was greater than 100 µM in each case. In addition, the TGI in the assay on A549 NSCLC, in the assay on CCRF-CEM leukemia, in the assay on COLO 205 colon, in the assay with IGROV1 ovarian, in the assay with MDA-MB-435 and in the assay with NCI-H23 lung was greater than 100 µM in each case. The TGI in the assay with SF-295 CNS, in the assay with SN12C renal and in the assay on UACC-257 melanoma was greater than 100 µM each time.

For the compound `CC(=O)OC1COC(Oc2c(C)c3c4c(c2O)[C@@H](C)CC[C@@H]4[C@@H](C)C[C@H]3C=C(C)C)C(O)C1O` (some centres not stated), the GI50 in the assay on A549 NSCLC is 16.8 µM; with CCRF-CEM leukemia, 11.1 µM; with COLO 205 colon, 26.4 µM; in the assay on IGROV1 ovarian, 20.1 µM; in the assay with MDA-MB-435 it was 15.4 µM; with NCI-H23 lung, 16.6 µM. In addition, the GI50 in the assay on SF-295 CNS was 17.9 µM; in the assay on SN12C renal, 20.8 µM. Further, the TGI with A549 NSCLC is 43.7 µM; with CCRF-CEM leukemia it was 35.6 µM; in the assay with COLO 205 colon, greater than 100 µM; in the assay with IGROV1 ovarian it was greater than 100 µM; in the assay on MDA-MB-435, 30.6 µM; with NCI-H23 lung, 33.2 µM. Further, the TGI came out at 35.3 µM with SF-295 CNS and 46.8 µM in the assay on SN12C renal.

As for `CC1=C(C(=O)CC(=O)C(=O)Nc2ccccc2C)Sc2ccccc2N1`, the TGI with A549 NSCLC was greater than 100 µM; with CCRF-CEM leukemia, greater than 100 µM; with COLO 205 colon, greater than 61.6 µM; in the assay on IGROV1 ovarian, greater than 100 µM; in the assay with NCI-H23 lung it was greater than 100 µM; in the assay on SF-295 CNS it was greater than 100 µM. Moreover, the TGI with SF-539 CNS, with SN12C renal and in the assay on UACC-257 melanoma was greater than 100 µM each time.

In the case of `Cc1csc(CCC(N)C(=O)O)n1` (configuration not stated), the TGI with A549 NSCLC, with CCRF-CEM leukemia, in the assay on COLO 205 colon, in the assay on IGROV1 ovarian, with NCI-H23 lung and with SF-295 CNS was greater than 100 µM in each case. For the same compound, the TGI in the assay with SF-539 CNS, in the assay on SN12C renal and with UACC-257 melanoma was greater than 100 µM in each case.

As for `COc1cc2c3c(n(CCCN4CCSCC4)c(=O)c2cc1OC)-c1cc2c(cc1C3=O)OCO2`, the GI50 in the assay on A549 NSCLC was greater than 100 µM; in the assay on COLO 205 colon it was greater than 100 µM; in the assay on IGROV1 ovarian, 28.8 µM; with MDA-MB-435, greater than 100 µM; in the assay with NCI-H23 lung it was greater than 100 µM; with SF-295 CNS, 19 µM. The GI50 with SF-539 CNS is 18.2 µM; with UACC-257 melanoma, greater than 100 µM. Besides, the TGI was greater than 100 µM with A549 NSCLC; greater than 100 µM with COLO 205 colon; 86.2 µM in the assay on IGROV1 ovarian; greater than 100 µM with MDA-MB-435; greater than 100 µM in the assay on NCI-H23 lung; greater than 100 µM with SF-295 CNS. Moreover, the TGI with SF-539 CNS is 34.5 µM; in the assay on UACC-257 melanoma, greater than 100 µM.

`Cc1cc(OC(=O)c2c(C)cc(OC(=O)c3c(C)cc(O)cc3O)cc2O)cc(O)c1C(=O)O`: the TGI with A549 NSCLC, in the assay with CCRF-CEM leukemia, with COLO 205 colon, in the assay on IGROV1 ovarian, in the assay on NCI-H23 lung and in the assay with SF-295 CNS was greater than 100 µM each time. For the same compound, the TGI in the assay with SF-539 CNS, in the assay on SN12C renal and with UACC-257 melanoma was greater than 100 µM throughout.
